Experimental data from paper PMC7672424 (Nucleic Acids Research, 2020).

Key:
[1] = system: TTA45 (DNA, G4) GGGTTAGGGTTAGGGTTAGGGTTAGGGTTAGGGTTAGGGTTAGGG; assay: ligand fluorescence enhancement; conditions: 100 mM K+ (KCl) plus potassium phosphate; 10 mM K2HPO4/KH2PO4 pH 7.0; 3 µM compound, 2 µM DNA; 10-fold increase at 521 nm
[2] = system: TBA (DNA, G4) GGTTGGTGTGGTTGG; assay: CD melting; conditions: 50 mM K+; 10 mM Tris-HCl pH 7.4; 5 µM DNA, 20 µM compound
[3] = system: c-KIT1 (DNA, G4) AGGGAGGGCGCTGGGAGGAGGG; assay: CD melting; conditions: 50 mM K+; 10 mM Tris-HCl pH 7.4; 5 µM DNA, 20 µM compound
A549 cells [4] = assay: Cell cycle analysis by flow cytometry (PI); assay type: cell-based, human; conditions: A549, 3 μM, 24 h; control 10.4%
Protocol: A549 cells treated with BMPQ-1 were harvested and washed in PBS and fixed with 70% ethanol at 4°C overnight. Then, the cells were centrifuged and re-suspended in a staining solution (50 μg/mL propidium iodide (PI), 75 KU/ml RNase A in PBS) for 30 min at room temperature in the dark. The cells were analyzed by flow cytometer (BD FacsAria, USA). For each analysis, 2.0 × 10^4 events were collected.
Figure S9. BMPQ-1 induced A549 cell cycle arrest. (A) The cell cycle analysis of A549 cells after 24 h treatment with BMPQ-1. The cells were collected and stained with propidium iodide (PI). (B) Percentage of A549 cells in different phases of the cell cycle. […]
different from the control. […]

A549 = assay: Cell cytotoxicity assay (CCK8); assay type: cell-based, human; conditions: Homo sapiens, A549; CCK8, 48 h treatment
Protocol: (§1) The cell growth effect of BMPQ-1 against different cell lines were tested via measuring the quantity of living cells using the Cell Counting Kit-8 (CCK8) (DOJINDO, Japan) according to the instruction. Cells were seeded in a 96-well plate (5 × 10^3 cells/well) and grown for 24 h for attachment. Then the cells were treated with various concentrations of BMPQ-1 and incubated at 37°C with 5% CO2 for 48 h. After incubation, the old medium was discarded followed by adding fresh medium containing 10% FBS in DMEM. Then 100 μl CCK-8 (10% in grow medium) was added into each well, and the cells were further incubated for 1 h. The optical density (OD) was detected at 450 nm by an automated microplate reader (Bio-Rad). The IC50 values were derived from the curves of the mean percentage of survival against the drug concentration. All the experiments were performed in triplicate.
(§2) A Cell Counting Kit-8 (CCK8) (DOJINDO, Japan) was employed to evaluate the cytotoxicity of BMPQ-1 on human alveolar basal epithelial cancer cell line (A549), human hepatocellular carcinoma cancer cell line (HepG2), human gastric cancer cell line (MGC-803), human colon adenocarcinoma (HT29), human normal liver Cells (HL-7702).

HT29 = assay: Cell cytotoxicity assay (CCK8); assay type: cell-based, human; conditions: Homo sapiens, HT-29; CCK8, 48 h treatment
Protocol: as §1, §2

MGC-803 = assay: Cell cytotoxicity assay (CCK8); assay type: cell-based, human; conditions: Homo sapiens, MGC-803; CCK8, 48 h treatment
Protocol: as §1, §2

HepG2 = assay: Cell cytotoxicity assay (CCK8); assay type: cell-based, human; conditions: Homo sapiens, HepG2; CCK8, 48 h treatment
Protocol: as §1, §2

TTA45 = assay: FRET melting assay, stabilization of TTA45; assay type: binding, human; conditions: 0.5 µM TTA45, 10 mM K2HPO4/KH2PO4, 100 mM KCl, pH 7.0
Protocol: Based on the conventional G-quadruplex ligand design ([46]), ∼400 compounds were selected from Chinese National Compound library of Peking University (PKU-CNCL). These compounds were evaluated for their ability to bind to TTA45 by Fluorescence Resonance Energy Transfer (FRET) assay (Supplementary Tables S1 and S2) ([47]). […] Compounds 21-38 were purchased to study their binding with TTA45 by FRET (Supplementary Table S3). […] page 4: Table S2. Stabilization of TTA45 as determined by FRET assays (continued). Compounds Structures ΔTm/°C Compounds Structures ΔTm/°C 23 10.3 25 14.6 […] OH 24 […] KCl, pH 7.0) was determined by FRET procedure, and Tm/°C were derived by their difference. The concentration of compounds 21-26 were 20 μM , and other compounds were 50 μM. FRET assay was carried out on the Real-Time PCR 3.2 machine (Analytik Jena, Germany). The total reaction volume was 20 μL with 0.5 μM of oligonucleotide labelled with FAM at the 3' end and TAMRA at 5' end in 10 mM K2HPO4/KH2PO4 (pH 7.0) containing 100 mM KCl. […] Then compounds with various concentrations were added into the DNA samples.

[5] = system: 19AT (DNA, duplex) ACGTCGATTATAGACGAGC/GCTCGTCTATAATCGACGT; assay: CD melting; conditions: 50 mM K+; 10 mM Tris-HCl pH 7.4; 5 µM DNA, 20 µM compound
A549 cells [6] = assay: Annexin V-FITC/PI apoptosis detection; assay type: cell-based, human; conditions: A549, 3 μM, 24 h
Protocol: The A549 cells treated with BMPQ-1 or DMSO were washed twice with PBS and detected using the annexin V-FITC/PI apoptosis detection kit (DOJINDO, Japan). The cells were pelleted and resuspended in the binding buffer. Annexin V-FITC and PI were added, and the cells were disturbed by gently vortexing the samples prior to incubation for 5 min in the dark. Emitted florescence was quantitated by flow cytometry (BD FacsAria, USA). For each analysis, 2.0 × 10^4 events were collected.
Figure S10. BMPQ-1 induced cell apoptosis of A549. (A) Apoptosis evaluation of A549 cells after 24 h treatment with various concentrations of BMPQ-1. The cells were collected and stained with Annexin V–FITC and PI. Region LL represents the viable cells; LR represents the early apoptotic cells; UR represents the late apoptotic cells; UL represents damaged cells and cell debris.
(B) Percentage of apoptosis in A549 cells. […]

## Cc1ccc(Cn2cc3c(-c4ccc5c(c4)OCO5)nnc-3c3cc4c(cc32)OCO4)cc1 [BMPQ-1]
[1]
  binding: yes
[2]
  ΔTm: 4.7 °C
[3]
  ΔTm: 6.6 °C
A549 cells [4]
  percentage of G2/M phase: 17.8%
A549
  IC50: 1460 ± 160 nM
HT29
  IC50: 1400 ± 60 nM
MGC-803
  IC50: 2360 ± 480 nM
HepG2
  IC50: 2140 ± 260 nM
TTA45; 20 µM compounds
  ΔTm/°C, TTA45 stabilization by FRET (Table S3): 16.09 ± 1.79 °C
TTA45; compounds 21-26 20 µM
  ΔTm/°C, stabilization of TTA45 by FRET (Table S2): 16.1 °C
[5]
  ΔTm: 1.8 °C
A549 cells [6]
  population of apoptotic cells: approximately 60%
